Test results published in EP4741392A1, “1H-PYRAZOLO[4,3-C]PYRIDINE COMPOUND, AND COMPOSITION THEREOF AND USE THEREOF” (Shenzhen TargetRx Co., Ltd., priority 2023, dated 2025).

Tests used:
Assay type in all cases: cell-based
[1] = system: Ba/F3-ETV6-BTK-T474I cells; assay: Viability assay of Ba/F3-ETV6-BTK-T474I cells (CTG); settings: Mus musculus, BaF3, cell viability, 72 hours
Experimental: The in vitro antiproliferative activity of the compounds of the present disclosure against Ba/F3-ETV6-BTK-T474I cells was assayed using CTG luminescent cell viability assay. The specific assay methods were as follows: • a) Ba/F3-ETV6-BTK-T474I cells were cultured at 37 °C and 5% CO2 in complete medium [RPMI 1640 (supplier Gibco, product number 22400-089) + 10% FBS (supplier Gibco, product number 10091-148)]. • b) Cells in the logarithmic growth phase were harvested, and cell counting was performed using a […]. Trypan blue exclusion test was used to determine the cell viability, ensuring that the cell viability was above 90%. • c) Cell density was adjusted using complete culture medium. Then, the cells were inoculated at 90 µL, a total of 3000 cells per well in a 96-well cell culture plate (supplier: Shanghai Jing An Biotechnology Co., Ltd., product number J09601). • d) The cells in the 96-well plate were cultured at 37 °C and 5% CO2. • e) A 10-fold drug solution was prepared, and then 10 µL of each serially diluted compound was transferred to the corresponding assay wells of the 96-well cell plate so that the final assay concentration was 1000 nM, with 9 concentrations, 3.16-fold dilutions, and triplicates for each drug concentration. • f) The cells in the 96-well plate with the drug added were cultured at 37 °C and 5% CO2 for another 72 hours. Then, CTG analysis was performed. • g) The CTG reagent was melted, and the cell plate was equilibrated at room temperature for 30 minutes. • h) An equal volume of CTG solution was added to each well. • i) The plate was shaken on an orbital shaker for 5 minutes to lyse the cells. • j) The cell plate was placed at room temperature for 20 minutes to stabilize the luminescent signal. • k) The luminescent signal values were read and the data were collected.
The data were analyzed using GraphPad Prism 7.0 software. Nonlinear S-curve regression was used to fit the data to give a dose-response curve, from which the IC50 values were calculated. [formula]

TMD8 cells = assay: Viability assay of TMD8 cells (CTG); settings: Homo sapiens, cell viability, 120 hours
Experimental: (§1) The in vitro antiproliferative activity of the compounds of the present disclosure against TMD8 cells and OCI-LY10 cells was assayed using CTG (Cell Titer-Glo) luminescent cell viability assay. The specific assay methods were as follows. • a) TMD8 cells were cultured at 37 °C and 5% CO2 in complete medium [RPMI 1640 (supplier Gibco, product number 22400-089) + 10% FBS (supplier Gibco, product number 10091-148) + 1% P/S (supplier Hyclone, product number SV30010)]; OCI-LY10 cells were cultured at 37 °C and 5% CO2 in medium [IMDM (supplier Gibco, product number 31980-030) + 20% FBS (supplier Gibco, product number 10091-148) + 1% P/S (supplier Hyclone, product number SV30010) + 0.05 mM 2-Mercaptoethanol (supplier Sigma, product number M6250)]. • b) Cells in the logarithmic growth phase were harvested, and the total cell count and viable cell count were determined using a Vi-cell cell counter (supplier: BECKMAN COULTER, product number 2785198). • c) Cell density was adjusted using complete culture medium. Then, the cells were inoculated at 1500 cells per well in a 384-well cell culture plate (supplier Greiner, product number 781090). • d) The cells in the 384-well plate were cultured at 37 °C and 5% CO2 overnight. • e) A 10-fold drug solution was prepared, and then the serially diluted compound was transferred to the corresponding assay wells of the 384-well cell plate so that the final assay concentration was 1000 nM, with 9 concentrations, 3-fold dilutions, and triplicates for each drug concentration. • f) The cells in the 384-well plate with the drug added were cultured at 37 °C and 5% CO2 for another 120 hours. • g) The cells were removed from the incubator, and allowed to equilibrate at room temperature for 30 minutes. The cell state and compound solubility were observed under a microscope. • h) An equal volume of CellTiterGlo solution (supplier Promega, product number G7573) was added to each well, and the plate was incubated at room temperature for 30 minutes. • i) Then, the luminescent signal value was detected on an EnVision instrument (supplier PerkinElmer, product number 2441715).
(§2) The data were analyzed using XL-fit software (supplier: ID Business Solutions Ltd., software version: XL fit 5.5.0.5). Nonlinear regression was performed using X=Log(X), and the X values were transformed using a four-parameter Logistic model 205, from which the IC50 values were calculated. Inhibition rate % = (Max−samplevalue)/Max*100.(Max:DMSOnegativecontrol) [formula]

OCI-LY10 cells = assay: Viability assay of OCI-LY10 cells (CTG); settings: Homo sapiens, OCI-Ly10, 120 h, cell viability, read-out: OCl-Ly10
Experimental: as §1, §2

SMILES | IC50 [1] [nM] | IC50 (OCI-LY10 cells) [nM] | IC50 (TMD8 cells) [nM]
COc1ccc(F)cc1C(=O)NCc1ccc(-c2ncc(-c3ccc(OCCN(C)C)cn3)c3[nH]nc(N)c23)cc1 [Example 60, N-(4-(3-amino-7-(5-(2-(dimethylamino)ethoxy)pyridin-2-yl)-1H-pyrazolo[4,3-c]pyridin-4-yl)benzyl)-5-fluoro-2-methoxybenzamide] | 5 to 10 | ≤ 5 | ≤ 5
COc1ccc(F)cc1C(=O)NCc1ccc(-c2ncc(-c3cc4ncccn4n3)c3[nH]nc(N)c23)cc1 [Example 44, N-(4-(3-amino-7-(pyrazolo[1,5-a]pyrimidin-2-yl)-1H-pyrazolo[4,3-c]pyridin-4-yl)benzyl)-5-fluoro-2-methoxybenzamide] | 5 to 10 | ≤ 5 | ≤ 5
COc1ccc(F)cc1C(=O)NCc1ccc(-c2ncc(-c3ccc(C(=O)N4C[C@H](C)O[C@@H](C)C4)cn3)c3[nH]nc(N)c23)cc1 [Example 53, N-(4-(3-amino-7-(5-((2S,6S)-2,6-dimethylmorpholine-4-carbonyl)pyridin-2-yl)-1H-pyrazolo[4,3-c]pyridin-4-yl)benzyl)-5-fluoro-2-methoxybenzamide] | ≤ 5 | ≤ 5 | ≤ 5
COc1ccc(F)cc1C(=O)NCc1ccc(-c2ncc(-c3ccc(OCCN4CCCC4)cn3)c3[nH]nc(N)c23)cc1 [Example 62, N-(4-(3-amino-7-(5-(2-(pyrrolidin-1-yl)ethoxy)pyridin-2-yl)-1H-pyrazolo[4,3-c]pyridin-4-yl)benzyl)-5-fluoro-2-methoxybenzamide] | 10 to 50 | ≤ 5 | ≤ 5
COc1ccc(F)cc1C(=O)NCc1ccc(-c2ncc(-c3ccc(C(=O)N4CCOCC4)cn3)c3[nH]nc(N)c23)cc1 [Example 52, N-(4-(3-amino-7-(5-(morpholine-4-carbonyl)pyridin-2-yl)-1H-pyrazolo[4,3-c]pyridin-4-yl)benzyl)-5-fluoro-2-methoxybenzamide] | ≤ 5 | ≤ 5 | ≤ 5
COc1ccc(F)cc1C(=O)NCc1ccc(-c2ncc(-c3ccc(C4COC4)cn3)c3[nH]nc(N)c23)cc1 [Example 43, N-(4-(3-amino-7-(5-(oxetan-3-yl)pyridin-2-yl)-1H-pyrazolo[4,3-c]pyridin-4-yl)benzyl)-5-fluoro-2-methoxybenzamide] | 5 to 10 | ≤ 5 | ≤ 5
COc1ccc(F)cc1C(=O)NCc1ccc(-c2ncc(-c3ccc(C(C)(C)O)cn3)c3[nH]nc(N)c23)cc1 [Example 65, N-(4-(3-amino-7-(5-(2-hydroxypropan-2-yl)pyridin-2-yl)-1H-pyrazolo[4,3-c]pyridin-4-yl)benzyl)-5-fluoro-2-methoxybenzamide] | ≤ 5 | ≤ 5 | ≤ 5
COc1ccc(F)cc1C(=O)NCc1ccc(-c2ncc(-c3ccc(OCCN4CCOCC4)cn3)c3[nH]nc(N)c23)cc1 [Example 61, N-(4-(3-amino-7-(5-(2-morpholinoethoxy)pyridin-2-yl)-1H-pyrazolo[4,3-c]pyridin-4-yl)benzyl)-5-fluoro-2-methoxybenzamide] | ≤ 5 | ≤ 5 | ≤ 5
COc1ccc(F)cc1C(=O)NCc1ccc(-c2ncc(-c3ccn4nccc4n3)c3[nH]nc(N)c23)cc1 [Example 46, N-(4-(3-amino-7-(pyrazolo[1,5-a]pyrimidin-5-yl)-1H-pyrazolo[4,3-c]pyridin-4-yl)benzyl)-5-fluoro-2-methoxybenzamide] | > 50 | 5 to 10 | ≤ 5

The next lines start with results.

IC50 [1] [nM] | IC50 (OCI-LY10 cells) [nM] | SMILES | IC50 (TMD8 cells) [nM]
≤ 5 | ≤ 5 | COc1ccc(F)cc1C(=O)NCc1ccc(-c2ncc(-c3ccc(CN4CCN(C)CC4)cn3)c3[nH]nc(N)c23)cc1 [Example 68, N-(4-(3-amino-7-(5-((4-methylpiperazin-1-yl)methyl)pyridin-2-yl)-1H-pyrazolo[4,3-c]pyridin-4-yl)benzyl)-5-fluoro-2-methoxybenzamide] | ≤ 5
≤ 5 | ≤ 5 | COc1ccc(F)cc1C(=O)NCc1ccc(-c2ncc(-c3ccc(CN4CCOCC4)cn3)c3[nH]nc(N)c23)cc1 [Example 67, N-(4-(3-amino-7-(5-(morpholinomethyl)pyridin-2-yl)-1H-pyrazolo[4,3-c]pyridin-4-yl)benzyl)-5-fluoro-2-methoxybenzamide] | ≤ 5
≤ 5 | ≤ 5 | COc1ccc(F)cc1C(=O)NCc1ccc(-c2ncc(-c3ccc(N4CCN(C)C[C@@H]4C)cn3)c3[nH]nc(N)c23)cc1 [Example 74, (S)-N-(-4-(3-amino-7-(5-(2,4-dimethylpiperazin-1-yl)pyridin-2-yl) 1H-pyrazolo[4,3-c]pyridin-4-yl)benzyl)-5-fluoro-2-methoxybenzamide] | ≤ 5
> 50 | 10 to 50 | COc1ccc(F)cc1C(=O)NCc1ccc(-c2nc(C3CCOCC3)cc3[nH]nc(N)c23)cc1 [Example 115, N-(4-(3-amino-6-(tetrahydro-2H-pyran-4-yl)-1H-pyrazolo[4,3-c]pyridin-4-yl)benzyl)-5-fluoro-2-methoxybenzamide] | 10 to 50
5 to 10 | ≤ 5 | COc1ccc(F)cc1C(=O)NCc1ccc(-c2ncc(-c3cc4n(n3)CCN(C)C4)c3[nH]nc(N)c23)cc1 [Example 71, N-(4-(3-amino-7-(5-methyl-4,5,6,7-tetrahydropyrazolo[1,5-a]pyrazin-2-yl)-1H-pyrazolo[4,3-c]pyridin-4-yl)benzyl)-5-fluoro-2-methoxybenzamide] | ≤ 5
10 to 50 | ≤ 5 | COc1ccc(F)cc1C(=O)NCc1ccc(-c2ncc(-c3cc4ccccn4n3)c3[nH]nc(N)c23)cc1 [Example 69, N-(4-(3-amino-7-(pyrazolo[1,5-a]pyridin-2-yl)-1H-pyrazolo[4,3-c]pyridin-4-yl)benzyl)-5-fluoro-2-methoxybenzamide] | ≤ 5
≤ 5 | ≤ 5 | COc1ccc(F)cc1C(=O)NCc1ccc(-c2ncc(-c3ccc(CN4CCCCC4)cn3)c3[nH]nc(N)c23)cc1 [Example 66, N-(4-(3-amino-7-(5-(piperidin-1-ylmethyl)pyridin-2-yl)-1H-pyrazolo[4,3-c]pyridin-4-yl)benzyl)-5-fluoro-2-methoxybenzamide] | ≤ 5
≤ 5 | ≤ 5 | COc1ccc(F)cc1C(=O)NCc1ccc(-c2ncc(-c3ccc(N4CCOCC4)cn3)c3[nH]nc(N)c23)cc1 [Example 76, N-(4-(3-amino-7-(5-morpholinopyridin-2-yl)-1H-pyrazolo[4,3-c]pyridin-4-yl)benzyl)-5-fluoro-2-methoxybenzamide] | ≤ 5
≤ 5 | ≤ 5 | COc1ccc(F)cc1C(=O)NCc1ccc(-c2ncc(-c3ccc(N4CCN(C)C[C@H]4C)cn3)c3[nH]nc(N)c23)cc1 [Example 75, (R)-N-(-4-(3-amino-7-(5-(2,4-dimethylpiperazin-1-yl)pyridin-2-yl) 1H-pyrazolo[4,3-c]pyridin-4-yl)benzyl)-5-fluoro-2-methoxybenzamide] | ≤ 5
